From US20090209602A1, “CHEMICAL COMPOUNDS” (priority 2006, published 2009)

Target: T1, human DGAT1 (Homo sapiens, UniProt O75907)
T1 construct: made in house; host or cells: Sf9 insect cells (recombinant baculovirus), membrane fraction
T1 sequence (O75907 1-488): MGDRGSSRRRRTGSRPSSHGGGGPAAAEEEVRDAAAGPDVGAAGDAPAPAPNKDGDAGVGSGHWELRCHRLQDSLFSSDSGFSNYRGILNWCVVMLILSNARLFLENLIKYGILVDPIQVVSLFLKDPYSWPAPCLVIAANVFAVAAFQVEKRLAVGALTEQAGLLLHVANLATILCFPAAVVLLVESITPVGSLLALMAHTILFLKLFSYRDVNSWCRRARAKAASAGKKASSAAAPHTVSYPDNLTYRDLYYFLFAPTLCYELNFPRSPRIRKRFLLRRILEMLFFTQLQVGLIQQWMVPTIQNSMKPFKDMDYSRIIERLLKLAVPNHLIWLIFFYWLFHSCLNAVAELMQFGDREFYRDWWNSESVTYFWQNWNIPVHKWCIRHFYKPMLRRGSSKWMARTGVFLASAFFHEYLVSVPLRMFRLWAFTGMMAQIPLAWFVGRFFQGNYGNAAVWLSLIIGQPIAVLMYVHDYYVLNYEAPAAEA
Assay: Human Enzyme Assay (DGAT1 inhibition)
Format: biochemical
Conditions: human DGAT1 expressed in insect cell (sf9) membranes; 14C oleoyl coenzyme A, 30 minutes, room temperature
Protocol: The in vitro assay to identify DGAT1 inhibitors uses human DGAT1 expressed in insect cell membranes as the enzyme source (Proc. Natl. Acad. Sci. 1998, 95, 13018-13023). Briefly, sf9 cells were infected with recombinant baculovirus containing human DGAT1 coding sequences and harvested after 48 h. Cells were lysed by sonication and membranes isolated by centrifuging at 28000 rpm for 1 h at 4° C. on a 41% sucrose gradient. The membrane fraction at the interphase was collected, washed, and stored in liquid nitrogen.
DGAT1 activity was assayed by a modification of the method described by Coleman (Methods in Enzymology 1992, 209, 98-102). Compound at 1-10 μM was incubated with 0.4 μg membrane protein, 5 mM MgCl2, and 100 μM 1,2 dioleoyl-sn-glycerol in a total assay volume of 200 μl in plastic tubes. The reaction was started by adding ^14C oleoyl coenzyme A (30 μM final concentration) and incubated at room temperature for 30 minutes. The reaction was stopped by adding 1.5 mL 2-propanol:heptane:water (80:20:2). Radioactive triolein product was separated into the organic phase by adding 1 mL heptane and 0.5 mL 0.1 M carbonate buffer pH 9.5. DGAT1 activity was quantified by counting aliquots of the upper heptane layer by liquid scintillography.

O=C(O)CC1CCC(c2ccc(NC(=O)c3cnc(Nc4ccccc4)o3)cc2)CC1 (stereo not shown) [Example 1, [4-(4-{[(2-Anilino-1,3-oxazol-5-yl)carbonyl]amino}phenyl)cyclohexyl]acetic acid]
IC50: 100 nM
